The text below walks through data of patent publication US20210138039A1, “PAIN RESPONSE MEDIATOR COMPOSITIONS AND METHODS FOR MAKING AND USING SAME” (Q-STATE BIOSCIENCES, INC., priority 2017, published 2021).

No end group written: not given here.

The subject of one test is humans. The conditions noted are these: injection in humans; cited from earlier work.
For test [1], the system named is E18 rat hippocampal neurons. Nature of the test: High-throughput fluorescent voltage recording, 96-well plate (FIGS. 30-34). Conditions: 1 μM; neurons cultured for 14 days; blue light stimulus. In kind it is cell-based. From the text: FIGS. 30-34 show high-throughput validation for screening. E18 rat hippocampal neurons cultured for 14 days.
The blue light stimulus is shown below.
FIG. 31 is a raster plot showing spikes from columns of wells.
Vehicle wells (even columns, green) and ML213 wells (odd columns, red) are easily distinguished. Even numbered columns are all green; odd numbered columns are all read.

For test [2], the system named is iPS cell-derived sensory neurons. In kind it is cell-based, human.
Another test deals with mouse DRG neurons. In kind it is cell-based.
Another test relates to Cultured DRG neurons. Nature of the test: Firing phenotypes of cultured DRG neurons. Type of test: cell-based, rodent.
The next test relates to rats. Conditions: injected in rats; cited from earlier work.
A further test has as its system animal models. Conditions: subcutaneous injection; cited from earlier work.

As for `Nc1ncnc2c1ncn2[C@@H]1O[C@H](COP(=O)(O)OP(=O)(O)OP(=O)(O)O)[C@@H](O)[C@H]1O` [ATP, adenosine triphosphate], in the test on humans, the “pain sensitivity on injection” value is “increased pain sensitivity”.

For the compound `Cc1cc(C)c(NC(=O)C2CC3CCC2C3)c(C)c1` (stereo not shown) [ML213], the firing rate result in test [1] is listed as “dramatically reduces firing rate in all wells tested”.

As to `NC1=N[C@H](O)[C@H]2[C@H]3O[C@]4(O)O[C@@H]([C@@H](O)[C@@]2(N1)[C@@H]4O)[C@]3(O)CO` [TTX, tetrodotoxin], the “spiking in response to the blue stimulus” value in test [2] is listed as “almost all spiking is blocked”. Further, in the test on mouse DRG neurons, the after-hyperpolarization depth result is listed as “decreases”, the “effect on the pain mediator composition-induced firing” value is given as “blocks the effect of the pain mediator composition” and the spike width result is listed as “increases”.

In the case of `COc1cc(CNC(=O)CCCC/C=C/C(C)C)ccc1O` [capsaicin], the “firing phenotype in response to capsaicin” value in the test on Cultured DRG neurons is on record as “acute response”.

As to “IL-6: an inflammatory cytokine found to be elevated around tumors”, in the test with rats, the pain on injection result was “causes local pain”.

In the case of TNF-a, the pain on injection entry in the test with rats was “cause pain”.

Consider “endothelin 1 (CSCSSLMDKECVYFCHLDIIW; ends and bridges not checked; cysteine pairing not given here; UniProt P05305 53-73, looked up) [ET-1]”, for which the “sensitization (paw withdrawal threshold)” value in the test with animal models is listed as “local sensitization”.
